# Where two headings read alike, the source gives them in different places. Positions of bridges follow the written chain, without caps; N, C: chain ends. Residues, ends and D or L forms follow the SMILES beside them.
# Assays:
# human IR-A (holoIR-A) = biological target: T1, human IR-A (holoIR-A) (Homo sapiens, UniProt P06213); test: holoIR-A competitive radioligand binding assay (scintillation proximity assay); conditions: for Ki: IM172N22(-) mutant peptide set; for reduction in ki for hIR-A on substitution: relative to control peptide IM172N22 devoid of N-terminal phenylacetylation
# T1 construct: expressed in transfected cells; host or cells: HEK293 (ATCC #CRL-1573), stably transfected; membrane preparation
# T1 sequence (P06213 28-1370 isoform P06213-2 limits assumed): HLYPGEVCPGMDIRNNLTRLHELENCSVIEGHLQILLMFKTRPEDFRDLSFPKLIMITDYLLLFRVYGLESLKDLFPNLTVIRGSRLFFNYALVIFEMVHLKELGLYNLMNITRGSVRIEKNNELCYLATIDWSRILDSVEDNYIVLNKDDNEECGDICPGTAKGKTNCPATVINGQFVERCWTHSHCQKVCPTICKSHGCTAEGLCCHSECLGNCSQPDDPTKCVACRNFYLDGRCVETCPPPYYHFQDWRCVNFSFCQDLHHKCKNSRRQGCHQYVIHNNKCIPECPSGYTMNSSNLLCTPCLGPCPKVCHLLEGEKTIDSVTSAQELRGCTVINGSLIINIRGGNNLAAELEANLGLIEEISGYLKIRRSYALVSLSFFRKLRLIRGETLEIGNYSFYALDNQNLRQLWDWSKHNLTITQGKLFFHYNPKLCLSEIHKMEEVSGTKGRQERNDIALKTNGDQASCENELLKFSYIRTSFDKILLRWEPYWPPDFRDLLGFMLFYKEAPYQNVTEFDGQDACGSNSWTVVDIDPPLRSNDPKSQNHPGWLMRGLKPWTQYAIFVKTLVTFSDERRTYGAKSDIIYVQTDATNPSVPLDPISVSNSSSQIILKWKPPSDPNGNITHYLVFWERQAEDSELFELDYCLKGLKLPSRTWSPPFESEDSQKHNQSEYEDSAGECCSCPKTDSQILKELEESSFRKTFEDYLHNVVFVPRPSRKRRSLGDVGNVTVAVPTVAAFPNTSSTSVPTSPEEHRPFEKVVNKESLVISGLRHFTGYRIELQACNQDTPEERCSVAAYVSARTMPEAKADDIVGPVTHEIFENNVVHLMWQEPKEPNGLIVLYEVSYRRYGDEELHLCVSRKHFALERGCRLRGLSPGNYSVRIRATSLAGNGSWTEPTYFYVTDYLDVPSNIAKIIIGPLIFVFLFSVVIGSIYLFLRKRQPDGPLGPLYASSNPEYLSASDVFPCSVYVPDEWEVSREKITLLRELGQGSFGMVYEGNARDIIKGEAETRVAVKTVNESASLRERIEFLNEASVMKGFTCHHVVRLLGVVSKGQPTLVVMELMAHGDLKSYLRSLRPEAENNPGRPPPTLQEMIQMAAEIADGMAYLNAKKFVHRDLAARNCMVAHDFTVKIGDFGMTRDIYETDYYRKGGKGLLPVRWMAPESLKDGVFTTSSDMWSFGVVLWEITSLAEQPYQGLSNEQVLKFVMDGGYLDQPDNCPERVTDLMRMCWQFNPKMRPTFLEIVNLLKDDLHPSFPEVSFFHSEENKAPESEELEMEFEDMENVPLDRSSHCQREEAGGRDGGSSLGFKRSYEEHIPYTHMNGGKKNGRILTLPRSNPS
# T1 sequence (P06213 763-1382 partner limits assumed): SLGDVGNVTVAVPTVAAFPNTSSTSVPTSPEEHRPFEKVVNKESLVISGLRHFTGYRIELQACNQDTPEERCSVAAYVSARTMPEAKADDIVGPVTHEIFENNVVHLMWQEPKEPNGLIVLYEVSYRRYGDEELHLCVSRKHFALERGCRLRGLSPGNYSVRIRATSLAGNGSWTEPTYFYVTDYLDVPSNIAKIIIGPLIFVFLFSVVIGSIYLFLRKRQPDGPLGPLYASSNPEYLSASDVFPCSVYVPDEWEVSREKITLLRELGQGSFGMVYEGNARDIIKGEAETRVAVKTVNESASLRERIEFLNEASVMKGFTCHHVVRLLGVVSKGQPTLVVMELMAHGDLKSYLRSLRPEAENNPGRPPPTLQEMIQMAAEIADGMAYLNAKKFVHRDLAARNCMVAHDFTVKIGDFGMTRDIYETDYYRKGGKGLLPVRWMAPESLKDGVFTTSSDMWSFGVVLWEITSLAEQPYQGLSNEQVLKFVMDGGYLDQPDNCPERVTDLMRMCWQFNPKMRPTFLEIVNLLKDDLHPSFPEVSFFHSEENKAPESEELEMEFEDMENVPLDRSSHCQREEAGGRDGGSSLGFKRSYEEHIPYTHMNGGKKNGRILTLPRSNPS
# Method: Cellular membranes were prepared from human embryonic kidney (HEK293; ATCC #CRL-1573) cells stably transfected with cDNA corresponding to human IR-A (holoIR-A) plus a C-terminal C9 tag ([…]) inserted within a pcDNA3.1 plasmid (Invitrogen), with positive clones selected with 800 μg mL^−1 neomycin and confirmed by Western Blot. Frozen cell pellets were thawed in ice-cold homogenization/resuspension buffer (50 mM Tris-HCl, pH 7.5) containing one cOmplete® protease inhibitor tablet with EDTA (Roche Diagnostics) per 50 mL buffer. Cells were homogenized with an overhead motor-driven Teflon-glass homogenizer using 15–20 strokes, followed by centrifugation at 1100 × g for 10 min at 4 °C. The supernatant was saved on ice, pellets were homogenized as before, and centrifuged at 1100 × g for 10 min at 4 °C. Both supernatants were combined and subsequently centrifuged at 35,000 × g for 60 min at 4 °C. The pellet was resuspended in buffer (4 to 5 mL g^−1 of starting cell paste) containing protease inhibitors and quick frozen in liquid nitrogen prior to storage at −80 °C. Protein concentration was determined using a BCA kit (Thermo Scientific) with bovine serum albumin (BSA) as standard.
# The assays were performed with a scintillation proximity assay (SPA) method using polyvinyltoluene (PVT) wheat germ agglutinin-coupled SPA beads (Perkin Elmer). Assay buffer containing 50 mM Tris-HCl (pH 7.5), 150 mM NaCl, 0.1% w/v fatty-acid free BSA was used for all compound testing and reagent preparation. Ten-point concentration response curves with three-fold serial dilutions of test samples or controls were prepared in the assay buffer. […] Plates were sealed and shaken for 1 min on a plate shaker. Following a 10-h incubation and bead settling period at room temperature, radioactivity was determined using a MicroBeta Trilux scintillation counter (Perkin Elmer) and expressed as counts per minute (CPM). […] Samples were tested in three independent assay runs on three different days.
# All test sample concentration responses were normalized to the control response and calculated as a percent of the maximal response after correcting for nonspecific binding as shown below: %Specific Inhibition=100%−[(CPM−MIN)/(MAX−MIN)×100%]
# Percent specific binding (y-axis) was plotted vs log concentration of compound (x-axis) using Prism Version 9.3.1 (GraphPad Software). Individual measurements are provided as Source Data.
# [1] = biological target: T2, human holoIR-A over-expressed in HEK293 cells (Homo sapiens, UniProt P06213); test: Inhibition of hIR phosphorylation by peptides, co-incubated with BHI at its EC50 (ELISA); type: cell-based; conditions: for hIRA Phosph IC50 Run 1 / hIRA Phosph IC50 Run 2 / hIRA Phosph IC50 Run 3: inhibition of insulin-stimulated phosphorylation; for hIRA Phosph IC50 Run 1: BHI at its EC50, run 1; for hIRA Phosph IC50 Run 2: BHI at its EC50, run 2; for hIRA Phosph IC50 Run 3: BHI at its EC50, run 3; for IC50: read-out: hIRA Phosph IC50 Mean
# T2 construct: expressed in transfected cells; host or cells: HEK293, stably transfected
# T2 sequence (P06213 28-1370 isoform P06213-2 limits assumed): as the sequence (P06213 28-1370 isoform P06213-2 limits assumed) above
# T2 sequence (P06213 763-1382 partner limits assumed): as the sequence (P06213 763-1382 partner limits assumed) above
# Method: Phosphorylation was quantified using an ELISA technique. Ninety-six well, flat-bottom microplates (Greiner Bio-One) were pre-coated with 2 µg mL^−1 anti-C9 monoclonal antibody (Rho 1D4; University of British Columbia)[27] in 20 mM sodium carbonate, pH 9.6, at 4 °C for overnight prior to the assay. On the assay day, plates were washed 3× with 0.1% Tween in 50 mM Tris Buffer Saline, pH 7.5 (TBST), and then blocked for greater than 1 h at room temperature (RT) with 1% BSA (Sigma) in TBST.
# Stably transfected HEK293 cells over-expressing human holoIR-A containing a C-terminal C9 epitope tag ([…]), were plated at 6 × 10^4 cells per well serum-starved using 0.1% BSA in DMEM (Gibco) for overnight at standard tissue culture condition. […] After a 15-min incubation in lysis buffer at 4 °C, the lysate was transferred to anti-C9 antibody coated capture plate (Rho 1D4; University of British Columbia)[27]. […] After a 1 h incubation at room temperature, the secondary antibody was removed by washing 3× with TBST. Signal detection occurred with the addition of TMB, an HRP substrate (Pierce). After 5–10 min, the reaction was stopped by adding an equal volume of 2 M H2SO4, and the absorbance readings at 450 nm (A450) were recorded using a Envision plate reader (PerkinElmer). Samples were tested in three independent assay runs on three different days.
# Percent specific response (y-axis) was plotted versus the log concentration of compound (x-axis) using Prism Version 9.3.1 (GraphPad Software). Individual measurements are provided as Source Data.
# [2] = mean of 3 runs, read-out: hIRA Binding Ki Mean
# [3] = run 1, read-out: hIRA Binding Ki Run 1
# [4] = run 2, read-out: hIRA Binding Ki Run 2
# [5] = run 3, read-out: hIRA Binding Ki Run 3
SMILES,Ki (human IR-A (holoIR-A); [2]),Ki (human IR-A (holoIR-A); [3]),Ki (human IR-A (holoIR-A); [4]),Ki (human IR-A (holoIR-A); [5]),hIRA Phosph IC50 Run 1 [1],hIRA Phosph IC50 Run 2 [1],hIRA Phosph IC50 Run 3 [1],IC50 [1],binding of the mutant peptide to hIR-A (in words) (human IR-A (holoIR-A); alanine substitution in IM172N22(-)),reduction in ki for hIR-A on substitution (human IR-A (holoIR-A))
CC(=O)N[C@@H](CO)C(=O)N[C@@H](CC(C)C)C(=O)N[C@@H](CCC(=O)O)C(=O)N[C@@H](CCC(=O)O)C(=O)N[C@@H](CCC(=O)O)C(=O)N[C@@H](Cc1c[nH]c2ccccc12)C(=O)N[C@@H](C)C(=O)N[C@@H](CCC(N)=O)C(=O)N[C@@H](C)C(=O)N[C@@H](CCC(=O)O)C(=O)N[C@H]1CSSC[C@@H](C(=O)N2CCC[C@H]2C(=O)N2CCC[C@H]2C(=O)N[C@@H](CO)C(=O)N[C@@H](CCC(=O)O)C(=O)N[C@@H](CO)C(N)=O)NC(=O)[C@H](CCCNC(=N)N)NC(=O)CNC(=O)[C@H](Cc2ccc(O)cc2)NC(=O)[C@H](C(C)C)NC(=O)[C@H](CCC(=O)O)NC1=O [Peptide I9A] (Ac-SLEEEWAQAECEVYGRCPPSES-NH2; disulfide 11-17),952 nM,952 nM,835 nM,1068 nM,4745 nM,4291 nM,4550 nM,4530 nM,–,–
CC[C@H](C)[C@H](NC(=O)[C@H](CCC(N)=O)NC(=O)[C@H](C)NC(=O)[C@H](Cc1c[nH]c2ccccc12)NC(=O)[C@H](CCC(=O)O)NC(=O)[C@H](CCC(=O)O)NC(=O)[C@H](CCC(=O)O)NC(=O)[C@H](C)NC(=O)[C@H](CO)NC(C)=O)C(=O)N[C@@H](CCC(=O)O)C(=O)N[C@H]1CSSC[C@@H](C(=O)N2CCC[C@H]2C(=O)N2CCC[C@H]2C(=O)N[C@@H](CO)C(=O)N[C@@H](CCC(=O)O)C(=O)N[C@@H](CO)C(N)=O)NC(=O)[C@H](CCCNC(=N)N)NC(=O)CNC(=O)[C@H](Cc2ccc(O)cc2)NC(=O)[C@H](C(C)C)NC(=O)[C@H](CCC(=O)O)NC1=O [Peptide L2A] (Ac-SAEEEWAQIECEVYGRCPPSES-NH2; disulfide 11-17),> 5000 nM,>5000 nM,>5000 nM,>5000 nM,7523 nM,7642 nM,7687 nM,7620 nM,no detectable binding,–
CC[C@H](C)[C@H](NC(=O)[C@H](CCC(N)=O)NC(=O)[C@H](C)NC(=O)[C@H](Cc1c[nH]c2ccccc12)NC(=O)[C@H](CCC(=O)O)NC(=O)[C@H](CCC(=O)O)NC(=O)[C@H](CCC(=O)O)NC(=O)[C@H](CC(C)C)NC(=O)[C@H](CO)NC(C)=O)C(=O)N[C@@H](CCC(=O)O)C(=O)N[C@H]1CSSC[C@@H](C(=O)N[C@@H](C)C(=O)N2CCC[C@H]2C(=O)N[C@@H](CO)C(=O)N[C@@H](CCC(=O)O)C(=O)N[C@@H](CO)C(N)=O)NC(=O)[C@H](CCCNC(=N)N)NC(=O)CNC(=O)[C@H](Cc2ccc(O)cc2)NC(=O)[C@H](C(C)C)NC(=O)[C@H](CCC(=O)O)NC1=O [Peptide P18A] (Ac-SLEEEWAQIECEVYGRCAPSES-NH2; disulfide 11-17),23.1 nM,20.6 nM,21.2 nM,27.3 nM,158 nM,143 nM,123 nM,141 nM,–,lower than 5 fold
CC[C@H](C)[C@H](NC(=O)[C@H](CCC(N)=O)NC(=O)[C@H](C)NC(=O)[C@H](Cc1c[nH]c2ccccc12)NC(=O)[C@H](CCC(=O)O)NC(=O)[C@H](CCC(=O)O)NC(=O)[C@H](CCC(=O)O)NC(=O)[C@H](CC(C)C)NC(=O)[C@H](CO)NC(C)=O)C(=O)N[C@@H](CCC(=O)O)C(=O)N[C@H]1CSSC[C@@H](C(=O)N2CCC[C@H]2C(=O)N[C@@H](C)C(=O)N[C@@H](CO)C(=O)N[C@@H](CCC(=O)O)C(=O)N[C@@H](CO)C(N)=O)NC(=O)[C@H](CCCNC(=N)N)NC(=O)CNC(=O)[C@H](Cc2ccc(O)cc2)NC(=O)[C@H](C(C)C)NC(=O)[C@H](CCC(=O)O)NC1=O [Peptide P19A] (Ac-SLEEEWAQIECEVYGRCPASES-NH2; disulfide 11-17),14 nM,13.0 nM,12.9 nM,16.2 nM,172 nM,109 nM,148 nM,143 nM,–,lower than 5 fold
CC[C@H](C)[C@H](NC(=O)[C@H](C)NC(=O)[C@H](C)NC(=O)[C@H](Cc1c[nH]c2ccccc12)NC(=O)[C@H](CCC(=O)O)NC(=O)[C@H](CCC(=O)O)NC(=O)[C@H](CCC(=O)O)NC(=O)[C@H](CC(C)C)NC(=O)[C@H](CO)NC(C)=O)C(=O)N[C@@H](CCC(=O)O)C(=O)N[C@H]1CSSC[C@@H](C(=O)N2CCC[C@H]2C(=O)N2CCC[C@H]2C(=O)N[C@@H](CO)C(=O)N[C@@H](CCC(=O)O)C(=O)N[C@@H](CO)C(N)=O)NC(=O)[C@H](CCCNC(=N)N)NC(=O)CNC(=O)[C@H](Cc2ccc(O)cc2)NC(=O)[C@H](C(C)C)NC(=O)[C@H](CCC(=O)O)NC1=O [Peptide Q8A] (Ac-SLEEEWAAIECEVYGRCPPSES-NH2; disulfide 11-17),6.05 nM,5.17 nM,6.67 nM,6.31 nM,84 nM,92 nM,99 nM,91.9 nM,–,lower than 5 fold
CC[C@H](C)[C@H](NC(=O)[C@H](CCC(N)=O)NC(=O)[C@H](C)NC(=O)[C@H](Cc1c[nH]c2ccccc12)NC(=O)[C@H](CCC(=O)O)NC(=O)[C@H](CCC(=O)O)NC(=O)[C@H](CCC(=O)O)NC(=O)[C@H](CC(C)C)NC(=O)[C@H](CO)NC(C)=O)C(=O)N[C@@H](CCC(=O)O)C(=O)N[C@H]1CSSC[C@@H](C(=O)N2CCC[C@H]2C(=O)N2CCC[C@H]2C(=O)N[C@@H](CO)C(=O)N[C@@H](CCC(=O)O)C(=O)N[C@@H](CO)C(N)=O)NC(=O)[C@H](C)NC(=O)CNC(=O)[C@H](Cc2ccc(O)cc2)NC(=O)[C@H](C(C)C)NC(=O)[C@H](CCC(=O)O)NC1=O [Peptide R16A] (Ac-SLEEEWAQIECEVYGACPPSES-NH2; disulfide 11-17),228 nM,211 nM,237 nM,235 nM,583 nM,517 nM,744 nM,615 nM,–,–

# Reference: article PMC9519552, “Activation of the human insulin receptor by non-insulin-related peptides” (Nature Communications, 2022)
